Results published in article PMC8131363 (Scientific Reports, 2021).

The compounds below were run against T1, hCaSR (Homo sapiens, UniProt P41180) (assay: hCaSR transiently expressed in HEK293/natClytin, agonist luminescence assay). Conditions: transiently expressed hCaSR; > 3 mM = maximal response not reached; read-out: hCaSR EC50.
T1 construct: expressed in transfected cells; host or cells: HEK293/natClytin (transient, pcDNA6 as delivered by GeneArt)
T1 sequence (P41180 20-1078): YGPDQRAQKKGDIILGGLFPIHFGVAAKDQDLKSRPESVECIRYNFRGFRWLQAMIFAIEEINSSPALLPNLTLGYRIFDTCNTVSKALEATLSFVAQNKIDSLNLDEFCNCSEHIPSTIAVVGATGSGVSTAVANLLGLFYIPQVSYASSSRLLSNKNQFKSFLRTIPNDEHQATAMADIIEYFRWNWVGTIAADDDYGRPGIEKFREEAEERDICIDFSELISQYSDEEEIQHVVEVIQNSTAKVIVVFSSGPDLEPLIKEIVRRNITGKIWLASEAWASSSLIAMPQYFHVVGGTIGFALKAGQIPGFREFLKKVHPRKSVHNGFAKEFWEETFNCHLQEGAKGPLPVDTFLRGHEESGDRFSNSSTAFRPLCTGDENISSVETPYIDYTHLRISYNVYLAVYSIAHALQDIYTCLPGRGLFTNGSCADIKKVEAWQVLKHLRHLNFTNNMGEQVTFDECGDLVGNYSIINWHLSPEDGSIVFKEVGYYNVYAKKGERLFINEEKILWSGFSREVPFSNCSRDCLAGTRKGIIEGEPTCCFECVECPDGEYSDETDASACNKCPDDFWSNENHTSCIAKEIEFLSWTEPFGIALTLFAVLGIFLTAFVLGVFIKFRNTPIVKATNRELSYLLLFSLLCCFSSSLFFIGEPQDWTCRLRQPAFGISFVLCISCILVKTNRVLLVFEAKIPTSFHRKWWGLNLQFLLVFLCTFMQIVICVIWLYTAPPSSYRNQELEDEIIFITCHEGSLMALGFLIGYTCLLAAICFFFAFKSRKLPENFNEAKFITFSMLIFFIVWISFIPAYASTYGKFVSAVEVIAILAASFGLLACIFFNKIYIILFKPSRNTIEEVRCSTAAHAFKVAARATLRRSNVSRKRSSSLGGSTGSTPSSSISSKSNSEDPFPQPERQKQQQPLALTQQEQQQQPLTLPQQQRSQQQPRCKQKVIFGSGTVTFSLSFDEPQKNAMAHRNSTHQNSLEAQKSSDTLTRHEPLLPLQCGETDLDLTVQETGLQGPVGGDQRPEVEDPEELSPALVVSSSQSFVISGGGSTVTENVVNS
Format: cell-based
Protocol: (§1) The coding sequence of the Felis catus[52] and Homo sapiens[53] CaSR gene was synthesised by GeneArt (Thermo Fisher Scientific). The cat coding sequence was excised from the GeneArt construct and inserted in pcDNA3.1 for constitutive and transient expression or pcDNA5/ TO for inducible expression. For the human sequence the pcDNA6 vector as delivered by GeneArt was used without further sub-cloning.
(§2) All transient transfections were performed with Lipofectamine 2000 (Invitrogen) according to the manufacturer’s protocol.
For `[Ca+2].[Cl-].[Cl-]` [Ca^2+, CaCl2], the EC50 was 0.8 mM.
In the case of `N[C@@H](CCC(=O)N[C@@H](CS)C(=O)NCC(=O)O)C(=O)O` [Glutathione], the EC50 is reported as > 3 mM.
`[Cl-].[Cl-].[Mg+2]` [Mg^2+, MgCl2] gave an EC50 of 3.9 mM.

These compounds were tested against T2, cCaSR (Felis catus, UniProt C7FF08) (assay: cCaSR transiently expressed in HEK293/natClytin, agonist luminescence assay). Conditions: transiently expressed cCaSR; > 3 mM = maximal response not reached; read-out: cCaSR EC50.
T2 sequence (C7FF08 1-1081): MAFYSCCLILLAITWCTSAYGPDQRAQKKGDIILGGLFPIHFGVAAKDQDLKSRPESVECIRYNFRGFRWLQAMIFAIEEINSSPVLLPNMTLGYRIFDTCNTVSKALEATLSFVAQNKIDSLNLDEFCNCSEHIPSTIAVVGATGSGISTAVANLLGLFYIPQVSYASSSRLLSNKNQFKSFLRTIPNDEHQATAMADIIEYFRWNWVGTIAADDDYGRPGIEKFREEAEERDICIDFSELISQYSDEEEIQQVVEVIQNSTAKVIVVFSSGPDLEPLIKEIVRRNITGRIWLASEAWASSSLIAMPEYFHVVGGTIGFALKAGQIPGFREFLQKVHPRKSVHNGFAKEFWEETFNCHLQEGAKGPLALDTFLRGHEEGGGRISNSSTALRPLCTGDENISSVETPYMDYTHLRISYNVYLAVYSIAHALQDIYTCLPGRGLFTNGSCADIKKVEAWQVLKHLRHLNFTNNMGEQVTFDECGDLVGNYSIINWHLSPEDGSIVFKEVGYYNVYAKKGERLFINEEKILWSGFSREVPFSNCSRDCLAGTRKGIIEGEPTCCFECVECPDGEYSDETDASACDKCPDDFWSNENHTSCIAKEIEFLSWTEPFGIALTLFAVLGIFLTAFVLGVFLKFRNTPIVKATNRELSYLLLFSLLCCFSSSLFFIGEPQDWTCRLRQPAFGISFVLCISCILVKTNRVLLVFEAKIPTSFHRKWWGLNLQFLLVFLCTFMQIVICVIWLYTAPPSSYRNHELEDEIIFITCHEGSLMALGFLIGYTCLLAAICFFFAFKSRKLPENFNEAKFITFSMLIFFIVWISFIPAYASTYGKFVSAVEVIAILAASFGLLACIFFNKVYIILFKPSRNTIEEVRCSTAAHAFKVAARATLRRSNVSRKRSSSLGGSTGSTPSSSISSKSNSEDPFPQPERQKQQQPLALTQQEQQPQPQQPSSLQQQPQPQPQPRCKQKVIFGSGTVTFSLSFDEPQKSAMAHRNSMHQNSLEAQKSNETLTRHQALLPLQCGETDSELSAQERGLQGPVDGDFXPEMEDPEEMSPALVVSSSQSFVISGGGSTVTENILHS
Format: cell-based
Protocol: as §1, §2
`[Ca+2].[Cl-].[Cl-]` [Ca^2+, CaCl2] showed an EC50 of 1.15 mM.
`N[C@@H](CCC(=O)N[C@@H](CS)C(=O)NCC(=O)O)C(=O)O` [Glutathione] was tested, and the EC50 was > 3 mM.
`[Cl-].[Cl-].[Mg+2]` [Mg^2+, MgCl2] gave an EC50 of 8.6 mM.
